Experimental findings from US6602864B1, “Sulfonic acid or sulfonylamino N-(heteroaralkyl)-azaheterocyclylamide compounds” (Aventis Pharma Deutschland GmbH, priority 1996, dated 2003) are described below.

Structures are written as SMILES. Structures can show the parent of a compound that is named as a salt.

In this test the target is Factor Xa (Homo sapiens, UniProt P00742). The test can be described thus: Enzyme assay with purified enzyme and peptide-p-nitroanilide substrate (IC50, apparent Ki). Particulars: library product after deprotection with 20% TFA; read-out: IC50 against Factor Xa. Format: biochemical. As to the method: All enzyme assays are carried out at room temperature in 96-well microtiter plates using a final enzyme concentration of 1 nM. The concentrations of factor Xa and thrombin are determined by active site titration and the concentrations of all other enzymes are based on the protein concentration supplied by the manufacturer. Compounds according to the invention are dissolved in DMSO, diluted with their respective buffers and assayed at a maximal final DMSO concentration of 1.25%. Compound dilutions are added to wells containing buffer and enzyme and pre-equilibrated for […]. The enzyme reactions are initiated by the addition of substrate and the color developed from the hydrolysis of the peptide-p-nitroanilide substrates is monitored continuously for 5 minutes at 405 nm on a Vmax microplate reader (Molecular Devices). Under these conditions, less than 10% of the substrate is utilized in all assays. […] The apparent Ki values are then determined according to the Cheng-Prusoff equation (IC50=Ki [1+[S]/Km]) assuming competitive inhibition kinetics.
Factor Xa, sequence (P00742 235-488 limits assumed): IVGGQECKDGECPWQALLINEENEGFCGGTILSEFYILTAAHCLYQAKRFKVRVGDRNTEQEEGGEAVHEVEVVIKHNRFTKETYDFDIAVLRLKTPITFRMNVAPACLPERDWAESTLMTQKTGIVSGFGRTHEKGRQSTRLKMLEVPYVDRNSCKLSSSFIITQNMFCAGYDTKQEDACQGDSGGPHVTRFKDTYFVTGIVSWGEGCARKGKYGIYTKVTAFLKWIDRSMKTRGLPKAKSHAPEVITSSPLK
Factor Xa, sequence (P00742 41-179 partner limits assumed): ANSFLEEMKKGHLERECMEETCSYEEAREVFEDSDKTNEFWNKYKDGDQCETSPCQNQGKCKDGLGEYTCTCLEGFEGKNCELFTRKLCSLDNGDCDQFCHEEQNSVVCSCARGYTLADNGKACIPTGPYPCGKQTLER

With `O=C1[C@@H](NS(=O)(=O)c2cc3ccc(Cl)cc3s2)CCN1Cc1cc2ncccc2[nH]1` [Example 46, 6-Chloro-benzo[b]thiophene-2-sulfonic Acid [2-oxo-1-(1H-Pyrrolo[3,2-b]pyridin-2-ylmethyl)-pyrrolidin-3-(S)-yl]-amide Trifluoroacetate], the IC50 is less than 500 nM.
